Positions of bridges follow the written chain, without caps; N, C: chain ends. No end group written: not given here.
Tested on: chick rectum
Conditions: read-out: EC50, chick rectum relaxant activity; isolated chick rectum
Experimental: A chick rectum relaxant activity measurement was conducted in accordance with the method of Currie et al. described in Nature, 221, 1-13, 1983.

Question: “DLRVDTKSRAAWARLLQEHPNARKYKGANKKGLSKGCFGLKLDRIGSMSGLGC (disulfide 37-53) [hCNP-53]” was tested. Which EC50 did it give?
Answer: 0.87 ± 0.1 nM

Source: patent US6034231A, “Human CNP gene and precursor protein” (Suntory Limited, priority 1990, dated 2000)
